This note sets out measurements from publication PMC5218480 (PLoS ONE, 2017).

In this assay the test system is MV-4-11 cells. The assay is described as follows: Gene expression microarray analysis (Affymetrix PrimeView) and GSEA. The class given is cell-based, human. The arrangement: RFU PODN (11730768_x_at) / Fold change /veh PODN (11730768_x_at) / RFU LINC00158 (11744669_a_at) / Fold change /veh LINC00158 (11744669_a_at) / RFU DUSP10 (11751237_a_at) / Fold change /veh DUSP10 (11751237_a_at) / RFU ID3 (11757404_x_at) / Fold change /veh ID3 (11757404_x_at) / RFU PLEKHG5 (11737974_s_at) / Fold change /veh PLEKHG5 (11737974_s_at) / RFU LRRC4B (11730491_at) / Fold change /veh LRRC4B (11730491_at) / RFU GIMAP4 (11747438_a_at) / Fold change /veh GIMAP4 (11747438_a_at) / RFU KRT8 (11758183_x_at) / Fold change /veh KRT8 (11758183_x_at) / RFU CNN1 (11734310_a_at) / Fold change /veh CNN1 (11734310_a_at) / RFU VPS37D (11726825_at) / Fold change /veh VPS37D (11726825_at) / RFU C10orf10 (11716522_x_at) / Fold change /veh C10orf10 (11716522_x_at) / RFU KIR2DL2 /// KIR2DL4 /// KIR2DL5A /// KIR2DL5B /// KIR2DS1 /// KIR2DS2 /// KIR2DS3 /// KIR2DS4 /// KIR3DL3 /// KIR3DL3 /// KIR3DS1 (11738374_at) / Fold change /veh KIR2DL2 /// KIR2DL4 /// KIR2DL5A /// KIR2DL5B /// KIR2DS1 /// KIR2DS2 /// KIR2DS3 /// KIR2DS4 /// KIR3DL3 /// KIR3DL3 /// KIR3DS1 (11738374_at) / RFU C1QL1 (11718748_at) / Fold change /veh C1QL1 (11718748_at) / RFU TMPRSS4 (11747572_a_at) / Fold change /veh TMPRSS4 (11747572_a_at) / RFU HAMP (11756126_x_at) / Fold change /veh HAMP (11756126_x_at) / RFU RNFT2 (11725882_a_at) / Fold change /veh RNFT2 (11725882_a_at) / RFU NR4A2 (11747474_a_at) / Fold change /veh NR4A2 (11747474_a_at) / RFU ABCC12 (11746883_a_at) / Fold change /veh ABCC12 (11746883_a_at) / RFU TMEM136 (11760407_x_at) / Fold change /veh TMEM136 (11760407_x_at) / RFU CLDN22 /// WWC2 (11732394_at) / Fold change /veh CLDN22 /// WWC2 (11732394_at) / RFU HLA-DPB1 (11760878_x_at) / Fold change /veh HLA-DPB1 (11760878_x_at) / RFU SPINT1 (11716480_a_at) / Fold change /veh SPINT1 (11716480_a_at) / RFU GAP43 (11754022_s_at) / Fold change /veh GAP43 (11754022_s_at) / RFU A4GNT (11735810_at) / Fold change /veh A4GNT (11735810_at) / RFU PRB3 (11715151_x_at) / Fold change /veh PRB3 (11715151_x_at) / RFU TUBB4B (11761932_at) / Fold change /veh TUBB4B (11761932_at) / RFU CAPN14 (11732068_a_at) / Fold change /veh CAPN14 (11732068_a_at) / RFU TMCC2 (11721928_a_at) / Fold change /veh TMCC2 (11721928_a_at) / RFU IRGQ (11745062_a_at) / Fold change /veh IRGQ (11745062_a_at) / RFU FAM174B (11720279_a_at) / Fold change /veh FAM174B (11720279_a_at) / RFU TMPRSS4 (11748680_a_at) / Fold change /veh TMPRSS4 (11748680_a_at) / RFU FAM212B (11763350_a_at) / Fold change /veh FAM212B (11763350_a_at) / RFU PLEKHG5 (11743358_a_at) / Fold change /veh PLEKHG5 (11743358_a_at) / RFU ZSCAN30 (11745921_a_at) / Fold change /veh ZSCAN30 (11745921_a_at) / RFU CMKLR1 (11741424_a_at) / Fold change /veh CMKLR1 (11741424_a_at) / RFU LOC101060620 /// MAPK8IP1 (11723275_at) / Fold change /veh LOC101060620 /// MAPK8IP1 (11723275_at) / RFU SPTSSB (11747773_x_at) / Fold change /veh SPTSSB (11747773_x_at) / RFU PRSS12 (11739890_at) / Fold change /veh PRSS12 (11739890_at) / RFU BIN1 (11741810_x_at) / Fold change /veh BIN1 (11741810_x_at) / RFU WNT11 (11732464_a_at) / Fold change /veh WNT11 (11732464_a_at) / RFU C10orf10 (11716521_a_at) / Fold change /veh C10orf10 (11716521_a_at) / RFU C5orf56 (11738089_at) / Fold change /veh C5orf56 (11738089_at) / RFU CYB561 (11721691_x_at) / Fold change /veh CYB561 (11721691_x_at) / RFU ANKRD19P (11752326_a_at) / Fold change /veh ANKRD19P (11752326_a_at) / RFU OR2T12 /// OR2T33 /// OR2T8 (11738714_s_at) / Fold change /veh OR2T12 /// OR2T33 /// OR2T8 (11738714_s_at) / RFU VCAN (11748164_a_at) / Fold change /veh VCAN (11748164_a_at) / RFU JSRP1 (11732532_at) / Fold change /veh JSRP1 (11732532_at) / RFU KRTAP10-11 (11738290_x_at) / Fold change /veh KRTAP10-11 (11738290_x_at) / RFU MYO3A (11730013_a_at) / Fold change /veh MYO3A (11730013_a_at) / RFU EBF3 (11725865_a_at) / Fold change /veh EBF3 (11725865_a_at) / RFU CAMK2N1 (11719241_x_at) / Fold change /veh CAMK2N1 (11719241_x_at) / RFU C5orf56 (11738088_a_at) / Fold change /veh C5orf56 (11738088_a_at) / RFU OLFML3 (11715873_a_at) / Fold change /veh OLFML3 (11715873_a_at) / RFU LOC100653217 /// NTM (11731650_a_at) / Fold change /veh LOC100653217 /// NTM (11731650_a_at) / RFU MAPK11 (11762145_a_at) / Fold change /veh MAPK11 (11762145_a_at) / RFU FIZ1 (11724087_x_at) / Fold change /veh FIZ1 (11724087_x_at) / RFU OASL (11726364_x_at) / Fold change /veh OASL (11726364_x_at) / RFU SOX15 (11748057_x_at) / Fold change /veh SOX15 (11748057_x_at) / RFU CD79A (11719716_a_at) / Fold change /veh CD79A (11719716_a_at) / RFU HIST1H1D (11736915_at) / Fold change /veh HIST1H1D (11736915_at) / RFU CASKIN2 (11723855_a_at) / Fold change /veh CASKIN2 (11723855_a_at) / RFU LOC730098 (11760151_x_at) / Fold change /veh LOC730098 (11760151_x_at) / RFU OR4N2 (11742367_at) / Fold change /veh OR4N2 (11742367_at) / RFU PRRT2 (11749266_a_at) / Fold change /veh PRRT2 (11749266_a_at) / RFU SNX32 (11753110_a_at) / Fold change /veh SNX32 (11753110_a_at) / RFU CDHR5 (11726645_a_at) / Fold change /veh CDHR5 (11726645_a_at) / RFU RCAN1 (11760418_a_at) / Fold change /veh RCAN1 (11760418_a_at) / RFU FAM167A (11723789_a_at) / Fold change /veh FAM167A (11723789_a_at) / RFU FAM26E (11764081_at) / Fold change /veh FAM26E (11764081_at) / RFU ISYNA1 (11749810_s_at) / Fold change /veh ISYNA1 (11749810_s_at) / RFU ACY1 (11761880_at) / Fold change /veh ACY1 (11761880_at) / RFU 11764098_at / Fold change /veh 11764098_at / RFU SAMD14 (11745864_x_at) / Fold change /veh SAMD14 (11745864_x_at) / RFU NPB (11741838_a_at) / Fold change /veh NPB (11741838_a_at) / RFU TMPRSS6 (11731388_a_at) / Fold change /veh TMPRSS6 (11731388_a_at) / RFU KRTAP10-2 (11738614_at) / Fold change /veh KRTAP10-2 (11738614_at) / RFU ARHGAP8 /// PRR5-ARHGAP8 (11727945_x_at) / Fold change /veh ARHGAP8 /// PRR5-ARHGAP8 (11727945_x_at) / RFU KRTAP5-7 /// NADSYN1 (11734609_at) / Fold change /veh KRTAP5-7 /// NADSYN1 (11734609_at) / RFU RASL12 (11751679_a_at) / Fold change /veh RASL12 (11751679_a_at) / RFU CDKN2B (11736163_a_at) / Fold change /veh CDKN2B (11736163_a_at) / RFU PRF1 (11729649_at) / Fold change /veh PRF1 (11729649_at) / RFU, ZNF638 /// ZNF638-IT1 / Fold change vs veh, ZNF638 /// ZNF638-IT1 / RFU, PANK3 / Fold change vs veh, PANK3 / RFU, SH3YL1 / Fold change vs veh, SH3YL1 / RFU, ZEB2 / Fold change vs veh, ZEB2 / RFU, NRIP1 / Fold change vs veh, NRIP1 / RFU, PTTG1IP / Fold change vs veh, PTTG1IP / RFU, CAPN2 / Fold change vs veh, CAPN2 / RFU, MED14 / Fold change vs veh, MED14 / RFU, SNORA58 / Fold change vs veh, SNORA58 / RFU, C1orf63 / Fold change vs veh, C1orf63 / RFU, LRRFIP1 / Fold change vs veh, LRRFIP1 / RFU, NDUFAF7 / Fold change vs veh, NDUFAF7 / RFU, SLC12A2 / Fold change vs veh, SLC12A2 / RFU, IBTK / Fold change vs veh, IBTK / RFU, ESF1 / Fold change vs veh, ESF1 / Fold change vs veh, TMEM50B / RFU, TAOK1 / Fold change vs veh, TAOK1 / RFU, ACBD3 / Fold change vs veh, ACBD3 / RFU, TMA16 / Fold change vs veh, TMA16 / RFU, RWDD3 / Fold change vs veh, RWDD3 / RFU, BCAT1 / Fold change vs veh, BCAT1 / RFU, EDEM3 / Fold change vs veh, EDEM3 / RFU, TMEM33 / Fold change vs veh, TMEM33 / RFU, WDR75 / Fold change vs veh, WDR75 / RFU, AHCTF1 / Fold change vs veh, AHCTF1 / RFU, TFRC / Fold change vs veh, TFRC / RFU, ZDHHC17 / Fold change vs veh, ZDHHC17 / RFU, NOM1 / Fold change vs veh, NOM1 / RFU, ARL8B / Fold change vs veh, ARL8B / RFU, ZBTB11 / Fold change vs veh, ZBTB11 / RFU, TAMM41 / Fold change vs veh, TAMM41 / RFU, KIAA1704 /// LOC100996395 / Fold change vs veh, KIAA1704 /// LOC100996395 / RFU, ING1 / Fold change vs veh, ING1 / RFU, TRMT61B / Fold change vs veh, TRMT61B / RFU, FUBP3 / Fold change vs veh, FUBP3 / RFU, TP53 / Fold change vs veh, TP53 / RFU, TNKS2 / Fold change vs veh, TNKS2 / RFU, ZFP14 / Fold change vs veh, ZFP14 / RFU, ACTR2 / Fold change vs veh, ACTR2 / RFU, PPP3R1 / Fold change vs veh, PPP3R1 / RFU, PIK3R1 / Fold change vs veh, PIK3R1 / RFU, HNRNPA1 / Fold change vs veh, HNRNPA1 / RFU, RNF170 / Fold change vs veh, RNF170 / RFU, ZNF28 / Fold change vs veh, ZNF28 / RFU, RNGTT / Fold change vs veh, RNGTT / RFU, OGT / Fold change vs veh, OGT / RFU, BRD1 / Fold change vs veh, BRD1 / RFU, MARS / Fold change vs veh, MARS / RFU, ZNF655 / Fold change vs veh, ZNF655 / RFU, FAHD1 / Fold change vs veh, FAHD1 / RFU, BDP1 / Fold change vs veh, BDP1 / RFU, LRRCC1 / Fold change vs veh, LRRCC1 / RFU, ARID1A / Fold change vs veh, ARID1A / RFU, ZNF146 / Fold change vs veh, ZNF146 / RFU, ZNF330 / Fold change vs veh, ZNF330 / RFU, GPN3 / Fold change vs veh, GPN3 / RFU, C9orf123 / Fold change vs veh, C9orf123 / RFU, N4BP2L2 / Fold change vs veh, N4BP2L2 / RFU, ARFIP1 / Fold change vs veh, ARFIP1 / RFU, FAM179B / Fold change vs veh, FAM179B / RFU, BCL10 / Fold change vs veh, BCL10 / RFU, UHRF1BP1L / Fold change vs veh, UHRF1BP1L / RFU, BET1 / Fold change vs veh, BET1 / RFU, CNOT2 / Fold change vs veh, CNOT2 / RFU, ZNF268 / Fold change vs veh, ZNF268 / Fold change vs veh, ZNF507 / RFU, DGCR2 / Fold change vs veh, DGCR2 / RFU, WDSUB1 / Fold change vs veh, WDSUB1 / Fold change vs veh, HSP90B1 /// MIR3652 / RFU, ADSS / Fold change vs veh, ADSS / RFU, GK / Fold change vs veh, GK / RFU, ZNF148 / Fold change vs veh, ZNF148 / RFU, TAF9 / Fold change vs veh, TAF9 / RFU, SLC1A5 / Fold change vs veh, SLC1A5 / RFU, SLMO2 / Fold change vs veh, SLMO2 / RFU, ABCC4 / Fold change vs veh, ABCC4 / RFU, LOC101060439 /// RAP1B / Fold change vs veh, LOC101060439 /// RAP1B / RFU, RFX7 / Fold change vs veh, RFX7 / RFU, GTPBP10 / Fold change vs veh, GTPBP10 / RFU, CNEP1R1 / Fold change vs veh, CNEP1R1 / RFU, BIVM-ERCC5 /// ERCC5 / Fold change vs veh, BIVM-ERCC5 /// ERCC5 / RFU, ILF3 / Fold change vs veh, ILF3 / RFU 11762660_at / Fold change /veh 11762660_at / RFU VCAN (11757783_s_at) / Fold change /veh VCAN (11757783_s_at) / RFU DDX43 (11728927_at) / Fold change /veh DDX43 (11728927_at) / RFU KRT8 (11758188_x_at) / Fold change /veh KRT8 (11758188_x_at) / RFU NKD1 (11759106_at) / Fold change /veh NKD1 (11759106_at) / RFU SRD5A1 (11742802_a_at) / Fold change /veh SRD5A1 (11742802_a_at) / RFU TPSAB1 /// TPSB2 (11721975_s_at) / Fold change /veh TPSAB1 /// TPSB2 (11721975_s_at) / RFU GSTM3 (11746129_a_at) / Fold change /veh GSTM3 (11746129_a_at) / RFU IL23R (11737362_x_at) / Fold change /veh IL23R (11737362_x_at) / RFU TMEM51 (11727254_a_at) / Fold change /veh TMEM51 (11727254_a_at) / RFU PIWIL2 (11732686_x_at) / Fold change /veh PIWIL2 (11732686_x_at) / RFU ORM1 (11744905_x_at) / Fold change /veh ORM1 (11744905_x_at) / RFU CCDC152 (11743942_at) / Fold change /veh CCDC152 (11743942_at) / RFU ECM1 (11717891_a_at) / Fold change /veh ECM1 (11717891_a_at) / RFU IL23R (11748794_a_at) / Fold change /veh IL23R (11748794_a_at) / RFU TNFAIP8L3 (11732012_x_at) / Fold change /veh TNFAIP8L3 (11732012_x_at) / RFU MBOAT4 (11741988_at) / Fold change /veh MBOAT4 (11741988_at) / RFU 11764193_at / Fold change /veh 11764193_at / RFU TMEM53 (11763286_at) / Fold change /veh TMEM53 (11763286_at) / RFU MAGEB2 (11727129_at) / Fold change /veh MAGEB2 (11727129_at) / RFU TMEM200A (11744735_a_at) / Fold change /veh TMEM200A (11744735_a_at) / RFU CCDC152 (11751479_a_at) / Fold change /veh CCDC152 (11751479_a_at) / RFU FAM211A (11726209_a_at) / Fold change /veh FAM211A (11726209_a_at) / RFU RGS16 (11746705_a_at) / Fold change /veh RGS16 (11746705_a_at) / RFU VCAN (11755009_s_at) / Fold change /veh VCAN (11755009_s_at) / RFU RHOB (11743442_s_at) / Fold change /veh RHOB (11743442_s_at) / RFU RGS16 (11720943_a_at) / Fold change /veh RGS16 (11720943_a_at) / RFU RGS16 (11720944_at) / Fold change /veh RGS16 (11720944_at) / RFU, VPS4B / Fold change vs veh, VPS4B / RFU, CREB1 / Fold change vs veh, CREB1 / RFU, DNAJC13 / Fold change vs veh, DNAJC13 / RFU, GNAQ / Fold change vs veh, GNAQ / RFU, CDK5R1 / Fold change vs veh, CDK5R1 / RFU, ZRANB3 / Fold change vs veh, ZRANB3 / RFU, CUL4A / Fold change vs veh, CUL4A / RFU, CCNY / Fold change vs veh, CCNY / RFU, UFL1 / Fold change vs veh, UFL1 / RFU, COG3 / Fold change vs veh, COG3 / RFU, DIAPH2 / Fold change vs veh, DIAPH2 / RFU, SKA2 / Fold change vs veh, SKA2 / RFU, AFF3 / Fold change vs veh, AFF3 / RFU, LMF1 / Fold change vs veh, LMF1 / RFU, IPO11 / Fold change vs veh, IPO11 / RFU, DFFB / Fold change vs veh, DFFB / RFU, FOXP1 / Fold change vs veh, FOXP1 / RFU, CARD8 / Fold change vs veh, CARD8 / RFU, STRN3 / Fold change vs veh, STRN3 / RFU, ADK / Fold change vs veh, ADK / RFU, RASSF2 / Fold change vs veh, RASSF2 / RFU, WIPF1 / Fold change vs veh, WIPF1 / RFU, LARP1B / Fold change vs veh, LARP1B / RFU, RASA1 / Fold change vs veh, RASA1 / RFU, RB1 / Fold change vs veh, RB1 / RFU, PPFIA1 / Fold change vs veh, PPFIA1 / RFU, MAT2A / Fold change vs veh, MAT2A / RFU, CCT5 / Fold change vs veh, CCT5 / RFU, WDR92 / Fold change vs veh, WDR92 / RFU, CUX1 / Fold change vs veh, CUX1 / RFU, TTC7A / Fold change vs veh, TTC7A / RFU, TMEM135 / Fold change vs veh, TMEM135 / RFU, DEPTOR / Fold change vs veh, DEPTOR / RFU, CPM / Fold change vs veh, CPM / RFU, DNAJB6 / Fold change vs veh, DNAJB6 / RFU, CACNA2D3 / Fold change vs veh, CACNA2D3 / RFU, DTX4 / Fold change vs veh, DTX4 / RFU, TFCP2 / Fold change vs veh, TFCP2 / RFU, GMCL1 /// GMCL1P1 / Fold change vs veh, GMCL1 /// GMCL1P1 / RFU, AEBP2 / Fold change vs veh, AEBP2 / RFU, SNHG1 /// SNORD22 /// SNORD25 /// SNORD26 /// SNORD27 /// SNORD28 /// SNORD29 /// SNORD31 / Fold change vs veh, SNHG1 /// SNORD22 /// SNORD25 /// SNORD26 /// SNORD27 /// SNORD28 /// SNORD29 /// SNORD31 / Fold change (Aza/veh), C12orf56 (ProbeSet 11735607_a_at) / Fold change (ACY-1035/veh), C12orf56 (ProbeSet 11735607_a_at) / Fold change (Aza/veh), FGFR1OP (ProbeSet 11751329_s_at) / Fold change (ACY-1035/veh), FGFR1OP (ProbeSet 11751329_s_at) / Fold change (Aza/veh), VPS36 (ProbeSet 11739960_a_at) / Fold change (ACY-1035/veh), VPS36 (ProbeSet 11739960_a_at) / RFU SYPL1 (11715823_x_at) / Fold change /veh SYPL1 (11715823_x_at) / RFU IGFBP7 (11715501_s_at) / Fold change /veh IGFBP7 (11715501_s_at) / RFU REEP3 (11722064_at) / Fold change /veh REEP3 (11722064_at) / RFU IGLL1 (11728026_x_at) / Fold change /veh IGLL1 (11728026_x_at): dose or concentration left out as unconfirmed. The following applies: ProbeSet 11747889_x_at; LIST B.

In the case of `Nc1ncn([C@@H]2O[C@H](CO)[C@@H](O)[C@H]2O)c(=O)n1` [azacitidine], the “RFU, SH3YL1” value worked out at 57.53 RFU.
